Drawing on PubChem BioAssay (NCI), this text covers TGI for 13 compounds.

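Exposure lasted 48 hours, with cells grown in 96-well plates and compounds tested at five concentrations. At the TGI there is no net growth.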

Test in all cases: inhibition of tumour cell growth, NCI panel, 48 h
Test [1] has as its system SNB-19 CNS.
In test [2] the test system is LOX IMVI melanoma.
Test [3] concerns HCT-116 colon.
Test [4] relates to SK-MEL-5 melanoma.
Test [5] deals with OVCAR-4 ovarian.
Test [6] has as its system MOLT-4 leukemia.
The subject of test [7] is A498 renal.
The subject of test [8] is SF-539 CNS.
For test [9], the system named is RXF 393 renal.
Test [10] concerns NCI-H460 lung.
Test [11] has as its system MALME-3M melanoma.
For test [12], the system named is HS 578T breast.

For `CN1CCN(C2=NCCO2)CC1`, the TGI in test [1], in test [2], in test [3], in test [4], in test [5] and in test [6] was over 100 µM each time. The TGI in test [7], in [8], in [9], in [10] and in [11] was over 100 µM each time.

As for `CC(C)(C)OC(=O)N[C@H]1CCN(C2CCCCC2)C1=O`, the TGI in [1], in [2], in test [3], in [4], in test [6] and in test [7] was over 100 µM in each case. Besides, the TGI in test [12], in [8] and in test [10] was over 100 µM in each case.

Take `O=C1CSC(c2ccc(Cl)cc2)N1c1ccc(Oc2ccc(Cl)cc2)c(Cl)c1` (centres undefined): the TGI in test [1] was 30.2 µM; in test [2], 30.7 µM; in test [3], 29.8 µM; in [4], 32.4 µM; in test [5], 28.1 µM; in test [6], 45 µM. For the same compound, the TGI in test [12] is 27.5 µM; in [8], 30.4 µM; in test [10], 35.5 µM; in [11], 21.9 µM.

In the case of `Nc1nc(Cl)cc(NCC2(CO)CC(=O)C2)n1`, the TGI in test [1], in [2], in test [3], in test [4], in test [5] and in [6] was over 100 µM in each case. For the same compound, the TGI in [12], in test [8], in test [9], in test [10] and in test [11] was over 100 µM each time.

Consider `COc1cc(Br)cc2cc(-c3cn4ccsc4n3)c(=O)oc12`, for which the TGI in test [1] was over 100 µM; in [2], over 100 µM; in [3] it was over 100 µM; in test [4] it was 49.9 µM; in test [5], over 100 µM; in test [6], over 100 µM. Also, the TGI in test [12] was over 100 µM; in [8], over 100 µM; in [9], 75.7 µM; in test [10] it was over 100 µM; in [11], over 100 µM.

In the case of `CN1C(=O)C2CCC(=O)N2c2cccnc21` (centres undefined), the TGI in [1], in test [2], in [3], in test [4], in [5] and in test [6] was over 100 µM throughout. Also, the TGI in [12], in test [8], in test [10] and in test [11] was over 100 µM each time.

Regarding `CCOC(=O)CSc1c(C(=O)OCC)c(=O)n(-c2ccccc2)c(=S)n1-c1ccccc1`, the TGI in [1], in test [2], in test [3], in test [4], in [5] and in test [6] was over 100 µM throughout. The TGI in [12], in [10] and in test [11] was over 100 µM throughout.

`CCC(C(=O)O)c1ccc(OC)cc1` (centres undefined): the TGI in [1], in [2], in [3], in [4], in test [5] and in test [6] was over 100 µM in each case. For the same compound, the TGI in [7], in [8], in test [9], in [10] and in test [11] was over 100 µM in each case.

As to `COC(CCC[N+](C)(C)C)CC[N+](C)(C)C` (centres undefined), the TGI in test [1], in test [3], in [4], in test [5], in test [6] and in [8] was over 100 µM throughout. In addition, the TGI in [9], in test [10] and in [11] was over 100 µM in each case.

As for `C=C1C(=O)O[C@@H]2C(=O)[C@@H](C)CCC/C(C)=C/CC[C@@]3(C)O[C@@H]3C[C@@H]12`, the TGI in test [1] is over 100 µM; in [2] it was 36.9 µM; in test [3], 96.1 µM; in [4], 56.7 µM; in test [5] it was over 100 µM; in test [6] it was over 100 µM. The TGI in test [7] is over 100 µM; in test [8], 60.6 µM; in test [9], 17.1 µM; in test [11], over 100 µM.

In the case of `NC(=O)NCCCC(NC(=O)OCCCCn1ccc(=O)[nH]c1=O)C(=O)O` (centres undefined), the TGI in test [1], in [2], in test [3], in test [5], in [6] and in [12] was over 100 µM throughout. Besides, the TGI in [8], in test [9] and in [10] was over 100 µM throughout.

As for `O=c1c2cc([N+](=O)[O-])cnc2sn1-c1ccc([N+](=O)[O-])cc1`, the TGI in [1] was over 100 µM; in test [2] it was 49.4 µM; in test [3], 83.9 µM; in test [4], over 100 µM; in test [5], 85.7 µM; in [6] it was 75.6 µM. Moreover, the TGI in test [12] was 90 µM; in [8], over 100 µM; in test [10], over 100 µM; in test [11], 53 µM.

Take `Cc1ccc(C(=O)O)cc1S(=O)(=O)Nn1cnc2ccc(S(=O)(=O)Nc3ccccc3C(=O)O)cc2c1=O`: the TGI in test [1], in test [2], in test [3], in [5], in [6] and in [12] was over 100 µM throughout. Also, the TGI in test [8], in test [10] and in [11] was over 100 µM each time.
